Where a name gives a salt, the structure may show the parent alone.
Experiments:
Details in all cases: 72 h
Calu-3 [1] = test: drug sensitivity score (DSS) for viability; higher = more toxic; extreme values may be limits of the assay
Caco-2 [2] = test: as above
HepG2 [3] = test: as above
Vero E6 [4] = test: as above
U2OS [5] = test: as above
Calu-3 [6] = test: relative viability EC50 (midpoint between 100% and the lowest measured viability); higher = less toxic
Caco-2 [7] = test: as above
HepG2 [8] = test: as above
Vero E6 [9] = test: as above
U2OS [10] = test: as above
Calu-3 [11] = test: cell viability relative to DMSO; higher = less toxic
Caco-2 [12] = test: as above
HepG2 [13] = test: as above
Vero E6 [14] = test: as above
U2OS [15] = test: as above

Structure (SMILES)	drug sensitivity score (Calu-3 [1])	drug sensitivity score (Caco-2 [2])	drug sensitivity score (HepG2 [3])	drug sensitivity score (Vero E6 [4])	drug sensitivity score (U2OS [5])	relative viability EC50 (Calu-3 [6]) [µM]	relative viability EC50 (Caco-2 [7]) [µM]	relative viability EC50 (HepG2 [8]) [µM]	relative viability EC50 (Vero E6 [9]) [µM]	relative viability EC50 (U2OS [10]) [µM]	cell viability (Calu-3 [11]; 1 nM) [%]	cell viability (Calu-3 [11]; 10 nM) [%]	cell viability (Calu-3 [11]; 100 nM) [%]	cell viability (Calu-3 [11]; 1000 nM) [%]	cell viability (Calu-3 [11]; 10000 nM) [%]	cell viability (Caco-2 [12]; 1 nM) [%]	cell viability (Caco-2 [12]; 10 nM) [%]	cell viability (Caco-2 [12]; 100 nM) [%]	cell viability (Caco-2 [12]; 1000 nM) [%]	cell viability (Caco-2 [12]; 10000 nM) [%]	cell viability (HepG2 [13]; 1 nM) [%]	cell viability (HepG2 [13]; 10 nM) [%]	cell viability (HepG2 [13]; 100 nM) [%]	cell viability (HepG2 [13]; 1000 nM) [%]	cell viability (HepG2 [13]; 10000 nM) [%]	cell viability (Vero E6 [14]; 1 nM) [%]	cell viability (Vero E6 [14]; 10 nM) [%]	cell viability (Vero E6 [14]; 100 nM) [%]	cell viability (Vero E6 [14]; 1000 nM) [%]	cell viability (Vero E6 [14]; 10000 nM) [%]	cell viability (U2OS [15]; 1 nM) [%]	cell viability (U2OS [15]; 10 nM) [%]	cell viability (U2OS [15]; 100 nM) [%]	cell viability (U2OS [15]; 1000 nM) [%]	cell viability (U2OS [15]; 10000 nM) [%]
CCCn1cnc2c1c(=O)n(CCCCC(C)=O)c(=O)n2C [propentofylline]	0	0	0	0	0	> 10	> 10	> 10	> 10	> 10	107	90.8	99	94.8	108	91.1	97.5	91.5	102	106	98.6	106	103	96.4	104	92.4	92.4	92.1	93.3	106	98.4	98.6	101	101	101
Cc1c(C(=O)NC2CCCCC2)sc2nc3ccc(N)cc3n12	0	0	0	0	0	> 10	> 10	> 10	> 10	> 10	93.7	109	83.3	97.4	103	105	97	101	103	104	94.1	101	92.8	104	107	99.4	103	96.9	103	107	102	94.6	96.4	98.1	102
CN(C(=O)Cc1ccccc1)[C@H](CN1CCCC1)c1ccccc1 [N-MPPP]	0	0	0	0	0	> 10	> 10	> 10	> 10	> 10	103	96.2	91.6	106	93.4	111	94.8	102	97.4	95.9	93.5	93.6	97.8	100	98	105	104	102	106	99.5	95	95.8	101	102	99.1
CC[C@@H](c1cccc(O)c1)[C@@H](C)CN(C)C [Tapentadol (hydrochloride)]	0.1	0	0	0	0	> 10	> 10	> 10	> 10	> 10	89	80.2	102	90.9	92.5	93.5	99.6	96.3	91.7	107	97	90.6	95.2	101	99.9	103	108	97.3	97.1	96.3	97	99.7	102	93.9	97.8
C[C@@H]1C(=O)O[C@H]2C[C@@]34[C@H]5C[C@@H](C(C)(C)C)[C@]36[C@@H](OC(=O)[C@@H]6O)O[C@@]4(C(=O)O5)[C@]21O [Ginkgolide A]	0	0	0	0	0	> 10	> 10	> 10	> 10	> 10	104	103	96.4	106	105	101	97.3	98.2	93.4	95.6	101	88.5	100	92.6	94.3	104	95.1	98.9	97	103	105	98.4	102	100	104
O=C(O)CCc1ccc(NCc2cccc(Oc3ccccc3)c2)cc1 [GW-9508]	0	0	0	0	0	> 10	> 10	> 10	> 10	> 10	90.9	100	107	106	104	95.4	98.4	102	112	106	97.1	101	96.9	99.8	96	94.1	96.1	97.8	95.2	101	91.9	97	98.6	102	97.6
CSc1ccc(OCc2ncc([N+](=O)[O-])n2C)cc1 [fexinidazole]	0	0	0	0	0	> 10	> 10	> 10	> 10	> 10	100	98.5	78.6	101	97.9	106	104	105	96.7	96.9	92.7	85.9	104	105	88.4	103	101	99.7	101	97	98.3	103	99.7	97.1	98.5
C#C[C@]1(O)CC[C@H]2[C@@H]3CCC4=CC(=O)CCC4=C3C=C[C@@]21CC [gestrinone]	0	0	0	0	0	> 10	> 10	> 10	> 10	> 10	106	93.3	99.9	97.8	94.1	107	116	86.1	102	101	96.7	103	101	103	90.6	96.6	97.2	101	89.3	101	94.7	95.8	91.6	99.9	93.9
C[C@H](NC(=O)/C(C#N)=C/c1cccc(Br)n1)c1ccccc1 [WP1066]	0.8	4.1	5.8	5	5.7	> 10	3.45	2.66	2.96	3.06	102	93	90.6	103	75.4	95.8	96.7	96.4	104	20.1	100	101	105	94.2	10.3	97.3	96.8	98.3	97.6	15.9	102	99.2	105	98.5	0.7
CCCc1nn(C)c2c(=O)[nH]c(-c3cc(S(=O)(=O)N4CCN(C)CC4)ccc3OCC)nc12 [sildenafil]	0	0	0.3	0	0	> 10	> 10	> 10	> 10	> 10	106	94.6	105	91.8	129	93.7	86.3	93.8	84.6	93.9	96.7	104	99.4	102	81.8	98.3	111	95.1	101	96.1	99.3	98.3	101	99.9	103
C[n+]1c2cc(N)ccc2cc2ccc(N)cc21.Nc1ccc2cc3ccc(N)cc3nc2c1 [acriflavine]	8.6	8.5	14.9	6.1	6.1	1.35	1.17	0.49	2.77	2.85	103	93.1	102	73	15.4	91.9	101	93.6	65.2	19.2	91.6	95.3	88.9	29.2	0.7	97	100	98.8	95.1	2.8	98.1	100	96.6	95.8	0
